Experiments:
[1] = pKa value was evaluated; format: physicochemical
Glycerol kinase = molecular target: T1, Glycerol kinase (Homo sapiens, UniProt P32189); experiment: Tested for its binding affinity against glycerol kinase (ATP competitive inhibition)
T1 sequence (P32189 whole entry): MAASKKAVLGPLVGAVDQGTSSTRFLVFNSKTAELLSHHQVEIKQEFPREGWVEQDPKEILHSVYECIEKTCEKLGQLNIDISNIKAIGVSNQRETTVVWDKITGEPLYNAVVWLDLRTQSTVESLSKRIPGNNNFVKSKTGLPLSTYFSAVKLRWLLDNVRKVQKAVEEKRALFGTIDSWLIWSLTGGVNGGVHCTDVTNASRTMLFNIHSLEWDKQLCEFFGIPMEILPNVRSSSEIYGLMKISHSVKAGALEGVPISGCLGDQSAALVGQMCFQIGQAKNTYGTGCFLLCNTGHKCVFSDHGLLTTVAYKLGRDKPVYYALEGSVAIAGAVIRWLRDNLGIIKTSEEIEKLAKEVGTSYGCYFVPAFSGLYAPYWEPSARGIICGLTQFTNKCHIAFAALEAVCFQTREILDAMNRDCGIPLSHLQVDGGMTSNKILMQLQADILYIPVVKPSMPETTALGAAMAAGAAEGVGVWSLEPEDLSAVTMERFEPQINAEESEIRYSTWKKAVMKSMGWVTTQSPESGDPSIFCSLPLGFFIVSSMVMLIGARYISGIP

| SMILES | pKa [1] | Ki (Glycerol kinase) |
| --- | --- | --- |
| Nc1ncnc2c1ncn2[C@@H]1O[C@H](COP(=O)(O)OP(=O)(O)OP(=O)(O)O)[C@@H](O)[C@H]1O [ADENOSINE TRIPHOSPHATE] | 7.1 | 200 µM |
| Nc1ncnc2c1ncn2[C@@H]1O[C@H](COP(=O)(O)OP(=O)(O)C(F)(F)P(=O)(O)O)[C@@H](O)[C@H]1O | 6.7 | 80 µM |
| Nc1ncnc2c1ncn2C1O[C@H](COP(=O)(O)OP(=O)(O)C[As](=O)(O)O)[C@@H](O)[C@H]1O (some centres undefined) | 9 | 2900 µM |
| Nc1ncnc2c1ncn2[C@@H]1O[C@H](COP(=O)(O)OP(=O)(O)NP(=O)(O)O)[C@@H](O)[C@H]1O | – | 900 µM |
| Nc1ncnc2c1ncn2[C@@H]1O[C@H](COP(=O)(O)OP(=O)(O)CP(=O)(O)O)[C@@H](O)[C@H]1O [PHOSPHOMETHYLPHOSPHONIC ACID ADENYLATE ESTER] | 8.4 | 300 µM |
